Experimental findings from patent US20080139388A1, “Synergistic Insecticide Mixtures” (priority 2004, published 2008) are described below.

The test system of assay [1] is Myzus persicae. Nature of the assay: Myzus persicae test (cabbage leaf dip). The assay is classed as in vivo. An excerpt:
(§1) Formula for the calculation of the kill rate of a combination of two active compounds
(§2) The expected activity for a given combination of two active compounds can be calculated (cf. COLBY, S. R.; “Calculating Synergistic and Antagonistic Responses of Herbicide Combinations”, Weeds 15, pages 20-22, 1967):
(§3) if • X=the kill rate, expressed in % of the untreated control, when employing active compound A at an application rate of m ppm, • Y=the kill rate, expressed in % of the untreated control, when employing active compound B at an application rate of n ppm, • E=the kill rate, expressed in % of the untreated control, when employing active compounds A and B at application rates of m and n ppm, then
(§4) If the actual insecticidal kill rate is higher than the calculated one, the kill rates of the combination are superadditive, i.e. a synergistic effect is present. In this case, the kill rate that is actually observed has to be higher than the value, calculated using the formula above, for the expected kill rate (E).
Solvent: 7 parts by weight of dimethylformamide Emulsifier: 2 parts by weight of alkylaryl polyglycol ether
To produce a suitable preparation of active compound, 1 part by weight of active compound is mixed with the stated amounts of solvent and emulsifier, and the concentrate is diluted with emulsifier-containing water to the desired concentration.
Cabbage leaves (Brassica oleracea) which are heavily infested by the green peach aphid (Myzus persicae) are treated by being dipped into the preparation of active compound of the desired concentration.
After the desired period of time, the kill in % is determined. 100% means that all aphids have been killed; 0% means that none of the aphids have been killed. The determined kill rates are entered into Colby's formula.

Assay [2] deals with Plutella xylostella (normally sensitive strain). The assay can be described thus: Plutella xylostella test, normally sensitive strain (cabbage leaf dip). The assay is classed as in vivo. The conditions noted are these: 20 ppm.
Description: as §1, §2, §3, §4
To produce a suitable preparation of active compound, 1 part by weight of active compound is mixed with the stated amounts of solvent and emulsifier, and the concentrate is diluted with emulsifier-containing water to the desired concentration. […]
After the desired period of time, the kill in % is determined. […] The determined kill rates are entered into Colby's formula (see sheet 1).

Regarding `C/C(=N\C#N)N(C)Cc1ccc(Cl)nc1` [acetamiprid], in assay [1] (0.16 ppm), the “Kill in % after 6 days” value is 30%.
Regarding `CN/C(=N\[N+](=O)[O-])NCc1cnc(Cl)s1` [clothianidin], in assay [1] (0.16 ppm, after 1 day (Table A2)), the “Kill in % after 1 day” value amounted to 0%.
Turning to `CNC(=O)Oc1cc(C)c(SC)c(C)c1` [methiocarb, 3,5-dimethyl-4-(methylthio)phenyl methylcarbamate], the “Kill in % after 1 day” value is 5% in assay [1] (20 ppm, after 1 day (Table A2)) and 5% in assay [1] (20 ppm, after 1 day (Table A3)). Further, the “Kill in % after 6 days” value in assay [1] (100 ppm) was 50%. The “Kill in % after 3 days” value in assay [2] came out at 0%.
`N#C/N=C1\SCCN1Cc1ccc(Cl)nc1` [thiacloprid]: the “Kill in % after 1 day” value in assay [1] (0.8 ppm, after 1 day (Table A3)) was 20%. Moreover, in assay [2], the “Kill in % after 3 days” value was 0%.
